Data from ChEMBL document CHEMBL4765314, “Rational design and biological evaluation of gemfibrozil modified Xenopus GLP-1 derivatives as long-acting hypoglycemic agents” (Eur J Med Chem, 2020).
Calls of active or inactive are those of the source. No cut-off for these calls is given here. Starred links: 1 amine or outer side, 2 acyl side, 3 side chain; linkers in the order of their positions; H or OH if unused. Residues, ends and D or L forms follow the SMILES beside them. Groups on a side chain read outwards from the residue. *: point of attachment. X5 = CC(=O)[C@H](CCCCNC(=O)CC[C@H](NC(=O)CCCCCCCCCCNC(=O)COC(=O)C(C)(C)CCCOc1cc(C)ccc1C)C(=O)O)N*; X4 = CC(=O)[C@H](CCCCNC(=O)CC[C@H](NC(=O)COC(=O)C(C)(C)CCCOc1cc(C)ccc1C)C(=O)O)N*; Glycoloyl(O-gemfibrozoyl) = Cc1ccc(C)c(OCCCC(C)(C)C(=O)OCC(=O)*)c1; γGlu = O=C(O)[C@H](CCC(=O)[*:2])N[*:1]; Aun = NCCCCCCCCCCC(=O)O; Ahx = NCCCCCC(=O)O

What was measured:
[1] = biological target: Glucagon-like peptide 1 receptor (Homo sapiens, UniProt P43220); assay: Agonist activity at human GLP-1R expressed in HEK293 cells assessed as stimulation of cAMP accumulation incubated for 60 mins by HTRF assay; assay type: functional, cell-based
Sequence of Glucagon-like peptide 1 receptor (P43220 whole entry): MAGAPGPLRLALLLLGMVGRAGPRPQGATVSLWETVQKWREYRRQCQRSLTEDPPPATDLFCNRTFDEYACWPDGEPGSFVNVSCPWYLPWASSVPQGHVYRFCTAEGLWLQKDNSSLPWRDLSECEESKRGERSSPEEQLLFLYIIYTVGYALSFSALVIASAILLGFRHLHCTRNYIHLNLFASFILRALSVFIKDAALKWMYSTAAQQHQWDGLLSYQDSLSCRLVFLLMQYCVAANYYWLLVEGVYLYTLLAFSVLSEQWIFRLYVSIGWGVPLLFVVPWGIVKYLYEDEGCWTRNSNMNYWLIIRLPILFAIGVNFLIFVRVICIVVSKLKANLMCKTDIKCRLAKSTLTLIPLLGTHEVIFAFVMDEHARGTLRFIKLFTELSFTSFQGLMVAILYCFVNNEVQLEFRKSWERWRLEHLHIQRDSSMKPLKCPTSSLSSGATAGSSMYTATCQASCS

Mus musculus = assay: Hypoglycemic activity in 12 hrs fasted ICR mouse assessed as reduction in blood glucose level at 25 nmol/kg, ip dosed 30 mins before glucose challenge measured up to 120 mins by OGTT method; assay type: functional, organism-based; conditions: time 150.0 min
[2] = Stability in Sprague-Dawley rat plasma at 1000 ng/ml measured up to 48 hrs under shaking condition by LC-MS/MS analysis; assay type: ADME, cell-free
[3] = Stability in Sprague-Dawley rat plasma assessed as half life at 1000 ng/ml measured up to 48 hrs under shaking condition by LC-MS/MS analysis; assay type: ADME, cell-free

SMILES	EC50 [1] [nM]	Activity (Mus musculus)	Stabilty [2]	half-life at 1000 ng/ml [3] [h]
CC[C@H](C)[C@H](NC(=O)[C@H](CC(C)C)NC(=O)[C@H](Cc1c[nH]c2ccccc12)NC(=O)[C@H](CCC(=O)O)NC(=O)[C@@H](NC(=O)[C@H](Cc1ccccc1)NC(=O)[C@H](CCC(=O)O)NC(=O)[C@H](CCCCNC(=O)CC[C@H](NC(=O)CCCCCCCCCCNC(=O)COC(=O)C(C)(C)CCCOc1cc(C)ccc1C)C(=O)O)NC(=O)[C@H](C)NC(=O)[C@H](C)NC(=O)[C@H](CCC(=O)O)NC(=O)[C@H](CCC(=O)O)NC(=O)[C@H](CCC(=O)O)NC(=O)[C@H](CC(C)C)NC(=O)[C@H](Cc1ccc(O)cc1)NC(=O)[C@H](CCC(=O)O)NC(=O)[C@@H](NC(=O)[C@@H](NC(=O)[C@H](CC(=O)O)NC(=O)[C@H](CC(N)=O)NC(=O)[C@@H](NC(=O)[C@H](Cc1ccc(O)cc1)NC(=O)[C@@H](NC(=O)CNC(=O)[C@H](CCC(=O)O)NC(=O)CNC(=O)[C@@H](N)Cc1cnc[nH]1)[C@@H](C)O)[C@@H](C)O)C(C)C)[C@@H](C)O)[C@@H](C)CC)C(=O)N[C@@H](CCCCN)C(=O)NCC(=O)N[C@@H](CCCCN)C(=O)O (H-HGEGTYTNDVTEYLEEEAAK([γGlu-Aun-Glycoloyl(O-gemfibrozoyl)])EFIEWLIKGK-OH)	0.093	Active	Stable	18.1
CC[C@H](C)[C@H](NC(=O)[C@H](CC(C)C)NC(=O)[C@H](Cc1c[nH]c2ccccc12)NC(=O)[C@H](CCC(=O)O)NC(=O)[C@@H](NC(=O)[C@H](Cc1ccccc1)NC(=O)[C@H](CCC(=O)O)NC(=O)[C@H](CCCCN)NC(=O)[C@H](C)NC(=O)[C@H](C)NC(=O)[C@H](CCC(=O)O)NC(=O)[C@H](CCC(=O)O)NC(=O)[C@H](CCC(=O)O)NC(=O)[C@H](CC(C)C)NC(=O)[C@H](Cc1ccc(O)cc1)NC(=O)[C@H](CCC(=O)O)NC(=O)[C@@H](NC(=O)[C@@H](NC(=O)[C@H](CC(=O)O)NC(=O)[C@H](CC(N)=O)NC(=O)[C@@H](NC(=O)[C@H](Cc1ccc(O)cc1)NC(=O)[C@@H](NC(=O)CNC(=O)[C@H](CCC(=O)O)NC(=O)CNC(=O)[C@@H](N)Cc1cnc[nH]1)[C@@H](C)O)[C@@H](C)O)C(C)C)[C@@H](C)O)[C@@H](C)CC)C(=O)N[C@@H](CCCCNC(=O)CC[C@H](NC(=O)CCCCCNC(=O)COC(=O)C(C)(C)CCCOc1cc(C)ccc1C)C(=O)O)C(=O)NCC(=O)N[C@@H](CCCCN)C(=O)O (H-HGEGTYTNDVTEYLEEEAAKEFIEWLIK([γGlu-Ahx-Glycoloyl(O-gemfibrozoyl)])GK-OH)	0.21	Active	Stable	–
CC[C@H](C)[C@H](NC(=O)[C@H](CC(C)C)NC(=O)[C@H](Cc1c[nH]c2ccccc12)NC(=O)[C@H](CCC(=O)O)NC(=O)[C@@H](NC(=O)[C@H](Cc1ccccc1)NC(=O)[C@H](CCC(=O)O)NC(=O)[C@H](CCCCN)NC(=O)[C@H](C)NC(=O)[C@H](C)NC(=O)[C@H](CCC(=O)O)NC(=O)[C@H](CCC(=O)O)NC(=O)[C@H](CCC(=O)O)NC(=O)[C@H](CC(C)C)NC(=O)[C@H](Cc1ccc(O)cc1)NC(=O)[C@H](CCC(=O)O)NC(=O)[C@@H](NC(=O)[C@@H](NC(=O)[C@H](CC(=O)O)NC(=O)[C@H](CC(N)=O)NC(=O)[C@@H](NC(=O)[C@H](Cc1ccc(O)cc1)NC(=O)[C@@H](NC(=O)CNC(=O)[C@H](CCC(=O)O)NC(=O)CNC(=O)[C@@H](N)Cc1cnc[nH]1)[C@@H](C)O)[C@@H](C)O)C(C)C)[C@@H](C)O)[C@@H](C)CC)C(=O)N[C@@H](CCCCNC(=O)CC[C@H](NC(=O)CCCCCCCCCCNC(=O)COC(=O)C(C)(C)CCCOc1cc(C)ccc1C)C(=O)O)C(=O)NCC(=O)N[C@@H](CCCCN)C(=O)O (H-HGEGTYTNDVTEYLEEEAAKEFIEWLIK([γGlu-Aun-Glycoloyl(O-gemfibrozoyl)])GK-OH)	0.21	Active	Stable	–
CC[C@H](C)[C@H](NC(=O)[C@H](CC(C)C)NC(=O)[C@H](Cc1c[nH]c2ccccc12)NC(=O)[C@H](CCC(=O)O)NC(=O)[C@@H](NC(=O)[C@H](Cc1ccccc1)NC(=O)[C@H](CCC(=O)O)NC(=O)[C@H](CCCCN)NC(=O)[C@H](C)NC(=O)[C@H](C)NC(=O)[C@H](CCC(=O)O)NC(=O)[C@H](CCC(=O)O)NC(=O)[C@H](CCC(=O)O)NC(=O)[C@H](CC(C)C)NC(=O)[C@H](Cc1ccc(O)cc1)NC(=O)[C@H](CCC(=O)O)NC(=O)[C@@H](NC(=O)[C@@H](NC(=O)[C@H](CC(=O)O)NC(=O)[C@H](CC(N)=O)NC(=O)[C@@H](NC(=O)[C@H](Cc1ccc(O)cc1)NC(=O)[C@@H](NC(=O)CNC(=O)[C@H](CCC(=O)O)NC(=O)CNC(=O)[C@@H](N)Cc1cnc[nH]1)[C@@H](C)O)[C@@H](C)O)C(C)C)[C@@H](C)O)[C@@H](C)CC)C(=O)N[C@@H](CCCCNC(=O)CC[C@H](NC(=O)COC(=O)C(C)(C)CCCOc1cc(C)ccc1C)C(=O)O)C(=O)NCC(=O)N[C@@H](CCCCN)C(=O)O (H-HGEGTYTNDVTEYLEEEAAKEFIEWLIK([γGlu-Glycoloyl(O-gemfibrozoyl)])GK-OH)	0.21	Active	Stable	–
CC[C@H](C)[C@H](NC(=O)[C@H](CC(C)C)NC(=O)[C@H](Cc1c[nH]c2ccccc12)NC(=O)[C@H](CCC(=O)O)NC(=O)[C@@H](NC(=O)[C@H](Cc1ccccc1)NC(=O)[C@H](CCC(=O)O)NC(=O)[C@H](CCCCN)NC(=O)[C@H](C)NC(=O)[C@H](C)NC(=O)[C@H](CCC(=O)O)NC(=O)[C@H](CCC(=O)O)NC(=O)[C@H](CCC(=O)O)NC(=O)[C@H](CC(C)C)NC(=O)[C@H](Cc1ccc(O)cc1)NC(=O)[C@H](CCC(=O)O)NC(=O)[C@@H](NC(=O)[C@@H](NC(=O)[C@H](CC(=O)O)NC(=O)[C@H](CC(N)=O)NC(=O)[C@@H](NC(=O)[C@H](Cc1ccc(O)cc1)NC(=O)[C@@H](NC(=O)CNC(=O)[C@H](CCC(=O)O)NC(=O)CNC(=O)[C@@H](N)Cc1cnc[nH]1)[C@@H](C)O)[C@@H](C)O)C(C)C)[C@@H](C)O)[C@@H](C)CC)C(=O)N[C@@H](CCCCN)C(=O)NCC(=O)N[C@@H](CCCCNC(=O)CC[C@H](NC(=O)COC(=O)C(C)(C)CCCOc1cc(C)ccc1C)C(=O)O)C(C)=O (H-HGEGTYTNDVTEYLEEEAAKEFIEWLIKG-X4)	0.38	Active	Stable	–
CC[C@H](C)[C@H](NC(=O)[C@H](CC(C)C)NC(=O)[C@H](Cc1c[nH]c2ccccc12)NC(=O)[C@H](CCC(=O)O)NC(=O)[C@@H](NC(=O)[C@H](Cc1ccccc1)NC(=O)[C@H](CCC(=O)O)NC(=O)[C@H](CCCCN)NC(=O)[C@H](C)NC(=O)[C@H](C)NC(=O)[C@H](CCC(=O)O)NC(=O)[C@H](CCC(=O)O)NC(=O)[C@H](CCC(=O)O)NC(=O)[C@H](CC(C)C)NC(=O)[C@H](Cc1ccc(O)cc1)NC(=O)[C@H](CCC(=O)O)NC(=O)[C@@H](NC(=O)[C@@H](NC(=O)[C@H](CC(=O)O)NC(=O)[C@H](CC(N)=O)NC(=O)[C@@H](NC(=O)[C@H](Cc1ccc(O)cc1)NC(=O)[C@@H](NC(=O)CNC(=O)[C@H](CCC(=O)O)NC(=O)CNC(=O)[C@@H](N)Cc1cnc[nH]1)[C@@H](C)O)[C@@H](C)O)C(C)C)[C@@H](C)O)[C@@H](C)CC)C(=O)N[C@@H](CCCCN)C(=O)NCC(=O)N[C@@H](CCCCNC(=O)CC[C@H](NC(=O)CCCCCCCCCCNC(=O)COC(=O)C(C)(C)CCCOc1cc(C)ccc1C)C(=O)O)C(C)=O (H-HGEGTYTNDVTEYLEEEAAKEFIEWLIKG-X5)	0.38	Active	Stable	–
CC[C@H](C)[C@H](NC(=O)[C@H](CC(C)C)NC(=O)[C@H](Cc1c[nH]c2ccccc12)NC(=O)[C@H](CCC(=O)O)NC(=O)[C@@H](NC(=O)[C@H](Cc1ccccc1)NC(=O)[C@H](CCC(=O)O)NC(=O)[C@H](CCCCN)NC(=O)[C@H](C)NC(=O)[C@H](C)NC(=O)[C@H](CCC(=O)O)NC(=O)[C@H](CCC(=O)O)NC(=O)[C@H](CCC(=O)O)NC(=O)[C@H](CC(C)C)NC(=O)[C@H](Cc1ccc(O)cc1)NC(=O)[C@H](CCC(=O)O)NC(=O)[C@@H](NC(=O)[C@@H](NC(=O)[C@H](CC(=O)O)NC(=O)[C@H](CC(N)=O)NC(=O)[C@@H](NC(=O)[C@H](Cc1ccc(O)cc1)NC(=O)[C@@H](NC(=O)CNC(=O)[C@H](CCC(=O)O)NC(=O)CNC(=O)[C@@H](N)Cc1cnc[nH]1)[C@@H](C)O)[C@@H](C)O)C(C)C)[C@@H](C)O)[C@@H](C)CC)C(=O)N[C@@H](CCCCN)C(=O)NCC(=O)N[C@@H](CCCCNC(=O)CC[C@H](NC(=O)CCCCCNC(=O)COC(=O)C(C)(C)CCCOc1cc(C)ccc1C)C(=O)O)C(=O)O (H-HGEGTYTNDVTEYLEEEAAKEFIEWLIKGK([γGlu-Ahx-Glycoloyl(O-gemfibrozoyl)])-OH)	0.38	Active	Stable	–
CC[C@H](C)[C@H](NC(=O)[C@H](CC(C)C)NC(=O)[C@H](Cc1c[nH]c2ccccc12)NC(=O)[C@H](CCC(=O)O)NC(=O)[C@@H](NC(=O)[C@H](Cc1ccccc1)NC(=O)[C@H](CCC(=O)O)NC(=O)[C@H](CCCCNC(=O)CC[C@H](NC(=O)COC(=O)C(C)(C)CCCOc1cc(C)ccc1C)C(=O)O)NC(=O)[C@H](C)NC(=O)[C@H](C)NC(=O)[C@H](CCC(=O)O)NC(=O)[C@H](CCC(=O)O)NC(=O)[C@H](CCC(=O)O)NC(=O)[C@H](CC(C)C)NC(=O)[C@H](Cc1ccc(O)cc1)NC(=O)[C@@H](NC(=O)[C@@H](NC(=O)[C@@H](NC(=O)[C@H](CC(=O)O)NC(=O)[C@H](CC(N)=O)NC(=O)[C@@H](NC(=O)[C@H](Cc1ccc(O)cc1)NC(=O)[C@@H](NC(=O)CNC(=O)[C@H](CCC(=O)O)NC(=O)CNC(=O)[C@@H](N)Cc1cnc[nH]1)[C@@H](C)O)[C@@H](C)O)C(C)C)[C@@H](C)O)C(C)C)[C@@H](C)CC)C(=O)N[C@@H](CCCCN)C(=O)NCC(=O)N[C@@H](CCCCN)C(=O)O (H-HGEGTYTNDVTVYLEEEAAK([γGlu-Glycoloyl(O-gemfibrozoyl)])EFIEWLIKGK-OH)	0.093	Active	Stable	–
